Source: PubChem BioAssay (NCI)
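Tested at 5 concentrations; 48 h exposure; 96-well plates; endpoints linearly interpolated, else capped at highest concentration. The concentration for full growth arrest is given as TGI.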

What was measured:
Test in all cases: NCI-60 cell line screen, 48 h
NCI/ADR-RES ovarian = test system: NCI/ADR-RES ovarian
MDA-N = test system: MDA-N
UACC-257 melanoma = test system: UACC-257 melanoma
HT29 colon = test system: HT29 colon
DU-145 prostate = test system: DU-145 prostate
T-47D breast = test system: T-47D breast
SK-MEL-5 melanoma = test system: SK-MEL-5 melanoma
KM12 colon = test system: KM12 colon
RXF 393 renal = test system: RXF 393 renal
IGROV1 ovarian = test system: IGROV1 ovarian
M14 melanoma = test system: M14 melanoma
OVCAR-5 ovarian = test system: OVCAR-5 ovarian
HOP-92 NSCLC = test system: HOP-92 NSCLC
TK-10 renal = test system: TK-10 renal
NCI-H226 lung = test system: NCI-H226 lung
U251 CNS = test system: U251 CNS
SK-OV-3 ovarian = test system: SK-OV-3 ovarian
SF-268 CNS = test system: SF-268 CNS
PC-3 prostate = test system: PC-3 prostate
SF-295 CNS = test system: SF-295 CNS
HCC-2998 colon = test system: HCC-2998 colon
OVCAR-8 ovarian = test system: OVCAR-8 ovarian
SR leukemia = test system: SR leukemia
MALME-3M melanoma = test system: MALME-3M melanoma
MOLT-4 leukemia = test system: MOLT-4 leukemia
NCI-H460 lung = test system: NCI-H460 lung
786-0 renal = test system: 786-0 renal
SK-MEL-28 melanoma = test system: SK-MEL-28 melanoma
MDA-MB-231 breast = test system: MDA-MB-231 breast
BT-549 breast = test system: BT-549 breast
NCI-H522 lung = test system: NCI-H522 lung
RPMI-8226 leukemia = test system: RPMI-8226 leukemia
MDA-MB-435 = test system: MDA-MB-435
HS 578T breast = test system: HS 578T breast
OVCAR-3 ovarian = test system: OVCAR-3 ovarian
COLO 205 colon = test system: COLO 205 colon
HCT-116 colon = test system: HCT-116 colon
OVCAR-4 ovarian = test system: OVCAR-4 ovarian
SNB-19 CNS = test system: SNB-19 CNS
A549 NSCLC = test system: A549 NSCLC
CCRF-CEM leukemia = test system: CCRF-CEM leukemia
HOP-62 NSCLC = test system: HOP-62 NSCLC
UACC-62 melanoma = test system: UACC-62 melanoma
ACHN renal = test system: ACHN renal
SF-539 CNS = test system: SF-539 CNS
K-562 leukemia = test system: K-562 leukemia
LOX IMVI melanoma = test system: LOX IMVI melanoma
NCI-H23 lung = test system: NCI-H23 lung
SN12C renal = test system: SN12C renal
SNB-75 CNS = test system: SNB-75 CNS
SW-620 colon = test system: SW-620 colon
HCT-15 colon = test system: HCT-15 colon
HL-60(TB) leukemia = test system: HL-60(TB) leukemia
UO-31 renal = test system: UO-31 renal
MCF7 breast = test system: MCF7 breast

Measured: TGI

CC(=O)OC1CC2(C)C(OC(C)=O)CC1C2(C)C (stereo not given)
> 100 µM: all assays above
